Like-named read-outs stand apart in the source and are kept apart here. One block for each compound: values may come before it. Where a SMILES comes first, the peptide text is derived from it.
Legend:
Type in all cases: binding
LC3A WT = LC3A WT (Homo sapiens, UniProt Q9H492); assay: ITC of peptides with LC3A; settings: 25 °C, 0.5 mM peptide in syringe, LC3A WT in cell 10 times lower, single-site model, ± fitting error
Description: (§1) Some of peptides (Supplementary Table 4) and all proteins except Atg40-6His were expressed in E. coli BL21 (DE3). Bacteria were cultured at 37 °C until OD600 became 0.8–1.0 and further cultured at 16 °C with 100 μM IPTG overnight. After centrifugation, the pellets were resuspended with 20 ml PBS with 0.5 mM EDTA and lysed by sonication for 10 min. After centrifugation, the supernatants were incubated with GST-accept resin (Nacalai tesque). After three times wash by PBS, the proteins were eluted with glutathione buffer (10 mM glutathione and 50 mM Tris pH 8.0). The buffer of the eluates was exchanged with PBS by a Bio-Scale Mini BioGel P-6 desalting column (Bio-Rad). After incubation with GST-fused HRV 3 C protease at 4 °C overnight, the samples were subjected to a GST-accept resin column to remove excised GST and the protease. RTN3^245–264-GABARAP was purified by cation-exchange chromatography using CM Sepharose FF column (GE Healthcare) with 500 mM MES pH 6.0 as buffer B and 50 mM MES pH 6.0 and 1 M NaCl as buffer C. The samples were further subjected to size-exclusion chromatography with 20 mM HEPES pH 6.8, 150 mM sodium chloride except for mCherry-Atg8-CC^tetramer (20 mM HEPES pH 6.8, 500 mM sodium chloride) using a Superdex 75 10/300 or Superdex 200 26/60 column. As described in Supplementary Table 4, the Atg40^237–252 M245A and Atg40^237–252 D243A D247A peptides were synthesized by Cosmo Bio, and the FAM134B^453–460 and SEC62^361–368 peptides were synthesized by BEX Co., Ltd. The Atg40^234–252 peptide and its variants were prepared using Liberty Blue peptide synthesizer (CEM Corporation). After dissolving these synthesized peptides in 300 μl water with ~10 μl ammonium hydroxide, they were subjected to size-exclusion chromatography with 20 mM HEPES pH 6.8 containing 150 mM sodium chloride using a Superdex 75 10/300 column.
Peptides used in ITC are listed in Supplementary Table 4. ITC experiments were performed using Microcal iTC200 calorimeter (Malvern Panalytical), with stirring at 1000 rpm at 25 °C. […]

LC3B WT = LC3B WT (Rattus norvegicus, UniProt Q62625); assay: ITC of peptides with LC3B; settings: 25 °C, 0.5 mM peptide in syringe, LC3B WT in cell 10 times lower, single-site model, ± fitting error
From the text: (§2) All plasmids for expression of recombinant proteins and peptides in bacteria were based on a pGEX6P-1 vector (GE Healthcare). Construction of pGEX6P-ScAtg8 (1-116) K26P and pGEX6P-rat LC3B (1-120) was previously described[35],[47]. All mutations were generated by PCR-based mutagenesis. The genes were amplified by PCR and inserted downstream of the HRV 3C protease recognition site by NEBuilder HiFi DNA Assembly Master Mix (New England Biolabs) except for that encoding human GABARAP (1-116), which was inserted using restriction enzymes for the NdeI and BamHI sites. Plasmids for expression of fusion proteins for crystallization were constructed by inserting the genes encoding Atg40^237–252, human FAM134B^450–468, human SEC62^361–376 with the T367D mutation, and human RTN3^245–264 isoform e into upstream of the sequence encoding Atg8 K26P of pGEX6P-Atg8 (the K26P mutation was introduced for stabilizing Atg8) or upstream of the sequence encoding GABARAP of pGEX6P-GABARAP (with the F3S V4T mutations for enhancing crystallization). For phase-separation experiments, the mCherry and BNDL1[25],[26] sequences were inserted into upstream and downstream of the ATG8 gene in pGEX6P-Atg8 K26P, respectively. pGEX-SNAP-40C was constructed by the removal of the HRV 3C protease recognition site and the insertion of the SNAP sequence from pSNAP-tag(T7) vector (New England Biolabs) with a linker (Gly–Gly–Gly–Ser–Gly–Gly–Gly) and Atg40^194–256 following a linker (Ser–Ala–Ser–Ser) to upstream and downstream of GST in pGEX6P-1 vector, respectively. In the construction of plasmids for peptide production, a Tyr residue was attached to their C termini for enabling the quantification by absorbance at 280 nm (Supplementary Table 4).
(§3) Some of peptides (Supplementary Table 4) and all proteins except Atg40-6His were expressed in E. coli BL21 (DE3). Bacteria were cultured at 37 °C until OD600 became 0.8–1.0 and further cultured at 16 °C with 100 μM IPTG overnight. After centrifugation, the pellets were resuspended with 20 ml PBS with 0.5 mM EDTA and lysed by sonication for 10 min. […]

GABARAP WT = GABARAP WT (Homo sapiens, UniProt O95166); assay: ITC of ER-phagy receptor peptides with GABARAP; settings: 25 °C, 0.5 mM peptide in syringe, ± fitting error; for N (site), stoichiometry of binding: GABARAP WT in cell
Sequence of GABARAP WT (O95166 1-116): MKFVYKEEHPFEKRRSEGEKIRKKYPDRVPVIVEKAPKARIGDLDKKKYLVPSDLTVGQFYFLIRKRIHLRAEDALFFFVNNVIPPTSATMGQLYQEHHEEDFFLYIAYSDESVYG
From the text: as §2, §3

LC3C WT = LC3C WT (Homo sapiens, UniProt Q9BXW4); assay: ITC of peptides with LC3C; settings: 25 °C, 0.5 mM peptide in syringe, LC3C WT in cell 10 times lower, single-site model, ± fitting error
Sequence of LC3C WT (Q9BXW4 whole entry): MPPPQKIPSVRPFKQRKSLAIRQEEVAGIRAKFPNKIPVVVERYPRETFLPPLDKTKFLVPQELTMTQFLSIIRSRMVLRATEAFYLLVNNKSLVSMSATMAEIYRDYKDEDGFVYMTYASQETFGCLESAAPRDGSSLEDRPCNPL
Description: as §1
Peptides used in ITC are listed in Supplementary Table 4. ITC experiments were performed using Microcal iTC200 calorimeter (Malvern Panalytical), with stirring at 1000 rpm at 25 °C. Atg40, FAM134B, SEC62, and RTN3 peptides were prepared as injection samples from the syringe. Concentrations of FAM134B, SEC62, and RTN3 peptides were 0.5 mM, whereas those of Atg40^234–252 and Atg40^237–252 peptides were 2.0 and 1.8 mM, respectively. In total, 200 μl Atg8, LC3A, LC3B, LC3C, GABARAP, GABARAPL1, and GABARAPL2 with 10 times lower concentration than the syringe samples were filled in the cell. As an exception, 1.8 mM Atg8 was filled in the cell when 1.8 mM Atg40^237–252 D243A D247A was in a syringe. The titration involved 18 injections of 2 μl of the syringe sample at intervals of 120 s into a cell after one injection of 0.4 μl of syringe sample. […]

SMILES: CC[C@H](C)[C@H](NC(=O)[C@@H](NC(=O)[C@H](CCC(=O)O)NC(=O)[C@H](Cc1ccccc1)NC(=O)[C@@H]1CCCN1C(=O)[C@H](CO)NC(=O)[C@H](CCC(=O)O)NC(=O)[C@@H](N)Cc1ccc(O)cc1)C(C)C)C(=O)N[C@H](C(=O)N[C@@H](CC(=O)O)C(=O)O)[C@@H](C)CC [RTN3245-253 WT (∆helix)] (H-YESPFEVIID-OH)
Kd (LC3A WT): 21.7 ± 3.62 µM

Kd (LC3B WT): 8.2 ± 2.46 µM
SMILES: CC[C@H](C)[C@H](NC(=O)[C@H](CCC(N)=O)NC(=O)[C@H](CC(=O)O)NC(=O)[C@H](CC(C)C)NC(=O)[C@H](C)NC(=O)[C@H](CO)NC(=O)[C@H](CCC(N)=O)NC(=O)[C@H](CC(=O)O)NC(=O)[C@H](CC(C)C)NC(=O)[C@H](CC(C)C)NC(=O)[C@H](C)NC(=O)[C@H](Cc1ccccc1)NC(=O)[C@H](CC(=O)O)NC(=O)[C@H](CC(=O)O)NC(=O)CNC(=O)[C@H](CCC(=O)O)NC(=O)[C@H](CCC(=O)O)NC(=O)[C@@H](NC(=O)[C@H](CC(=O)O)NC(=O)[C@@H](NC(=O)[C@H](CC(=O)O)NC(=O)[C@H](CCC(=O)O)NC(=O)[C@H](CCC(=O)O)NC(=O)[C@@H]1CCCN1C(=O)CN)[C@@H](C)O)[C@@H](C)O)C(=O)N[C@@H](CCC(=O)O)C(=O)N[C@@H](CO)C(=O)N[C@@H](CCC(=O)O)C(=O)N[C@@H](CC(C)C)C(=O)N[C@@H](Cc1ccc(O)cc1)C(=O)O [FAM134B^444-470 E456A E462A] (H-GPEEDTDTEEGDDFALLDQSALDQIESELY-OH)

SMILES: CC[C@H](C)[C@H](NC(=O)[C@H](CCC(N)=O)NC(=O)[C@H](CC(=O)O)NC(=O)[C@H](CC(C)C)NC(=O)[C@H](CCC(=O)O)NC(=O)[C@H](CO)NC(=O)[C@H](CCC(N)=O)NC(=O)[C@H](CC(=O)O)NC(=O)[C@H](C)NC(=O)[C@H](CC(C)C)NC(=O)[C@H](CCC(=O)O)NC(=O)[C@H](Cc1ccccc1)NC(=O)[C@H](CC(=O)O)NC(=O)[C@H](CC(=O)O)NC(=O)CNC(=O)[C@H](CCC(=O)O)NC(=O)[C@H](CCC(=O)O)NC(=O)[C@@H](NC(=O)[C@H](CC(=O)O)NC(=O)[C@@H](NC(=O)[C@H](CC(=O)O)NC(=O)[C@H](CCC(=O)O)NC(=O)[C@H](CCC(=O)O)NC(=O)[C@@H]1CCCN1C(=O)CN)[C@@H](C)O)[C@@H](C)O)C(=O)N[C@@H](CCC(=O)O)C(=O)N[C@@H](CO)C(=O)N[C@@H](CCC(=O)O)C(=O)N[C@@H](CC(C)C)C(=O)N[C@@H](Cc1ccc(O)cc1)C(=O)O [FAM134B444-470 L458A] (H-GPEEDTDTEEGDDFELADQSELDQIESELY-OH)
N (site), stoichiometry of binding (GABARAP WT): 0.99 ± 0.03
Kd (GABARAP WT; 20 mM HEPES pH 6.8, 150 mM NaCl, GABARAP WT in cell 10 times lower, single-site model): 2.06 ± 0.61 µM

SMILES: CSCC[C@H](NC(=O)[C@H](CCC(=O)O)NC(=O)[C@H](Cc1ccccc1)NC(=O)[C@H](CC(=O)O)NC(=O)[C@H](CC(N)=O)NC(=O)CNC(=O)[C@H](CC(N)=O)NC(=O)CNC(=O)[C@H](CO)NC(=O)[C@H](CO)NC(=O)[C@H](Cc1c[nH]cn1)NC(=O)[C@@H]1CCCN1C(=O)CN)C(=O)N[C@@H](C)C(=O)N[C@H](C(=O)N[C@@H](CCCCN)C(=O)N[C@@H](CCC(=O)O)C(=O)N[C@@H](CCC(=O)O)C(=O)N[C@@H](CC(C)C)C(=O)N[C@@H](CCC(=O)O)C(=O)N[C@@H](CCC(N)=O)C(=O)N[C@@H](CCC(N)=O)C(=O)N[C@H](C(=O)N[C@@H](CC(=O)O)C(=O)N[C@@H](Cc1ccc(O)cc1)C(=O)O)[C@@H](C)O)[C@@H](C)O [SEC62355-376 I366A] (H-GPHSSGNGNDFEMATKEELEQQTDY-OH)
N (site), stoichiometry of binding (GABARAP WT): 0.87 ± 0.10

SMILES: CC[C@H](C)[C@H](NC(=O)[C@@H](NC(=O)[C@H](CCC(=O)O)NC(=O)[C@H](Cc1ccccc1)NC(=O)[C@@H]1CCCN1C(=O)[C@H](CO)NC(=O)[C@@H](N)CCC(=O)O)C(C)C)C(=O)N[C@H](C(=O)N[C@@H](CC(=O)O)C(=O)N[C@@H](CCCCN)C(=O)N[C@@H](C)C(=O)N[C@@H](C)C(=O)N[C@@H](Cc1ccccc1)C(=O)N[C@@H](CC(=O)O)C(=O)N[C@@H](CCCCN)C(=O)N[C@@H](CCC(=O)O)C(=O)N[C@@H](Cc1ccccc1)C(=O)N[C@@H](CCCCN)C(=O)N[C@@H](CC(=O)O)C(=O)N[C@@H](CO)C(=O)N[C@@H](Cc1ccc(O)cc1)C(=O)O)[C@@H](C)CC [RTN3245-264 WT] (H-ESPFEVIIDKAAFDKEFKDSY-OH)
Kd (LC3C WT): not detected

SMILES: CC[C@H](C)[C@H](NC(=O)[C@H](CCSC)NC(=O)[C@H](CCC(=O)O)NC(=O)[C@H](Cc1ccccc1)NC(=O)[C@H](CC(=O)O)NC(=O)[C@@H](N)CC(N)=O)C(=O)N[C@H](C(=O)N[C@@H](CCCCN)C(=O)N[C@@H](Cc1ccc(O)cc1)C(=O)O)[C@@H](C)O [SEC62^361-368 (Δhelix)] (H-NDFEMITKY-OH)
Kd (LC3C WT; read-out: Kd): 31.9 ± 13.2 µM
